How the values were obtained:
cancer patients = test: Retrospective analysis of electronic health records of cancer patients receiving ICT (anti-PD-1/PD-L1); assay type: in vivo, human
Text: FIG. 1A: Percentages of deceased cancer patients taking dietary nutritional supplements during ICT treatment (Anti-PD-1/PDL1: Pembrolizumab/Atezolizumab) (n=7,667 including 1,888 breast cancer patients, 2,715 melanoma patients, and 3,064 prostate cancer patients). Each bar represents a group of patients who took one type of nutritional supplement along with ICT (Red dashed line indicated the median percentage of deceased cancer patients in this study). […] FIGS. 1C-1D: Tumor growth curves of orthotopic EMT6 TNBC tumor-bearing Balb/c mice (FIG. 1C, n=5) and orthotopic B16-GMCSF melanoma tumor-bearing C57BL/6 mice (FIG. 1D, left, n=5) treated with vehicle, 50 mg/kg of Vitamin E (VitE), […] anti-PDI (ICT), or Vitamin E+anti-PD1 (VitE+ICT) (n=5). Flow cytometry quantification of Granzyme B^+CD8^+ T cells in tumor tissues at 20 days post-implantation (FIG. 1D. right, n=5). FIG. 1E: Tumor growth curves of orthotopic B16-F10 melanoma tumor-bearing C57BL/6 mice with the indicated treatments (n=5). FIG. 1F: Tumor growth curves of orthotopic B16-FLT3L melanoma tumor-bearing C57BL/6 mice with the indicated treatments (n=5). […]
We retrospectively analyzed electronic health records for the clinical outcomes of cancer patients receiving ICT immunotherapies (anti-PD-1/PD-L1). […]

4T1 tumors = test: Orthotopic 4T1 TNBC tumor model; assay type: in vivo, mouse
Description: FIG. 6A: Diagram of the experimental paradigm (top) and tumor growth curves (bottom) of orthotopic B16-GMCSF tumor in mice vaccinated with or without GVAX (s.c. at day 1, 4, 7), then treated with vehicle or VitE (50 mg/kg/day daily by oral gavage administration from day 4 to day 20) (n=6/group). FIG. 6B: Tumor weight of 4T1 tumors from mice treated with vehicle. GVAX, ICT (200 μg/mouse anti-PDI and 100 μg/mouse anti-CTLA4 by i.p. at day 7, 10, 13), or GVAX+ICT in combination with vehicle or VitE (50 mg/kg/day daily by oral gavage administration from day 4 to day 25) (n=4) at day 25 after tumor inoculation. FIG. 6C: Flow cytometric analysis (left) and quantification (right) of gp70 tetramer+CD8^+ T cells in 4T1 tumors at day 14 post-implantation with indicated treatments (n=5/group). FIG. 6D: Kaplan-Meier survival curve of 4T1 tumor-bearing mice treated with vehicle, low dosage of Doxorubicin (Dox, 5 mg/kg by i.v.). ICT (200 μg/mouse anti-PD1 and 100 μg/mouse anti-CTLA4 by i.p. at day 7, 10, 13). or Dox+ICT along with vehicle or VitE (n=10). FIG. 6E: Measurement of maximal tumor diameter in HY1936 KPC tumor-bearing mice treated with gemcitabine (GEM, 25 mg/kg by i.p.) and ICT (anti-PDI/anti-CTLA4) along with vehicle or VitE (n=5). FIG. 6F: Kaplan-Meier survival curve of HY19636 KPC tumor-bearing mice treated with vehicle, GEM (gemcitabine, 25 mg/kg by i.p.), GEM+ICT (anti-PDI/anti-CTLA4) plus vehicle or VitE (n=6). Error bars, s.e.m. ns, no significant. *P<0.05. ***P<0.001, ****P<0.0001.
Syngeneic orthotopic PDAC tumors were established by surgical implantation.
Control groups received vehicle (PBS) without the active product.
Where indicated, mice were vaccinated subcutaneously on their contralateral flank with either PBS or 1.0×10^6 35 Gy-irradiated GM-CSF-secreting B16 cells or GM-CSF-secreting 4T1 cells (GVAX) on days 1, 4, and 7 post-tumor injections.
For chemo combination treatment, HY19636 KPC tumor-bearing mice were treated with gemcitabine (GEM) at 25 mg/kg body weight by i.p. injection once a week from day 7 and 4T1 TNBC tumor-bearing mice were given with doxorubicin (Dox, 5 mg/kg body weight) by i.v. once a week from day 10. The chemotherapeutic doses and schedules used in this study are below or within the range of the concentrations used in the clinic after converting drug doses between species.

[1] = doxorubicin+ICT+VitE vs doxorubicin+ICT

## Cc1c(C)c2c(c(C)c1O)CC[C@@](C)(CCC[C@H](C)CCC[C@H](C)CCCC(C)C)O2 [VitE, D-α-Tocopherol]
Cancer patients; VitE during anti-PD-1/PD-L1 treatment vs any of 14 other dietary or nutritional supplements
  survival rate of cancer patients: significantly improved survival rate
Cancer patients; took VitE during anti-PD-1/PD-L1 treatment (n=83), patients who did not 21.2% (n=7,574), Fisher P 0.0027
  Percentages of deceased cancer patients: 8.4%
4T1 tumors; VitE 50 mg/kg/day combined with GVAX+ICT
  antitumor effect (tumor weight): significantly enhanced the antitumor effect
4T1 tumors; VitE added to doxorubicin+ICT
  gp70 tetramer-specific CD8+ T cells in tumor: increased the infiltration of tumor-infiltrating gp70) tetramer-specific CD8^+ T cells
4T1 tumors; [1]
  survival: substantially prolonged the survival
  tumor growth and lung metastasis: inhibited tumor growth and lung metastasis

Source: patent US20240424019A1, “SHP1 MODIFIED DENDRITIC CELLS AND EXTRACELLULAR VESICLES DERIVED THEREFROM AND ASSOCIATED METHODS” (BOARD OF REGENTS, THE UNIVERSITY OF TEXAS SYSTEM, priority 2021, published 2024)
